These results are taken from ChEMBL document CHEMBL4152349, “A Fragment-Derived Clinical Candidate for Antagonism of X-Linked and Cellular Inhibitor of Apoptosis Proteins: 1-(6-[(4-Fluorophenyl)methyl]-5-(hydroxymethyl)-3,3-dimethyl-1 H,2 H,3 H-pyrrolo[3,2- b]pyridin-1-yl)-2-[(2 R,5 …” (J Med Chem, 2018).

A value given as a limit tells only on which side of the number the result lay.

A short description of data set [1]: Oral bioavailability in Balb/c mouse at 5 mg/kg by UHPLC and ESI mass spectrometry. It is filed as ADME, organism-based. To be noted: in vivo.
Data set [2] is described as follows: Chromatographic hydrophobicity index, log D of the compound at pH 7.4 by HPLC method. As to conditions: buffer. The format is physicochemical.
Data set [3] is described as follows: Oral bioavailability in Balb/c mouse at 10 mg/kg by UHPLC and ESI mass spectrometry. The format is ADME, organism-based. To be noted: in vivo.
In a further data set the target is CYP3A4 (Homo sapiens, UniProt P08684). The experiment in a line: in vitro. As to conditions: human CYP3A4 supersomes.
Chain of CYP3A4 (P08684 whole entry): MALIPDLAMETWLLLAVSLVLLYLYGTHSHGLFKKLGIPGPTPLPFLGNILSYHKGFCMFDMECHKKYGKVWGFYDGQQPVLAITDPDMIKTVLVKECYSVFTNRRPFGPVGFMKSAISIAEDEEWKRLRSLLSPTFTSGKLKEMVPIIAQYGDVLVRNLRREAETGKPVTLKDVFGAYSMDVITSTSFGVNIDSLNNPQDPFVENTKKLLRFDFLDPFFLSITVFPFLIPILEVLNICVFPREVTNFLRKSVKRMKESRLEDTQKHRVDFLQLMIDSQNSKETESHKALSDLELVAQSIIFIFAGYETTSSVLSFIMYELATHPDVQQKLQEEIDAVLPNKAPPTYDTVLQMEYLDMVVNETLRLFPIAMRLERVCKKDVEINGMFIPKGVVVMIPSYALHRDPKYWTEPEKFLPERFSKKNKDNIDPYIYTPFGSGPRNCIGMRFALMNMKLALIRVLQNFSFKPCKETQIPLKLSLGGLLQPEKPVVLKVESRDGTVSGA
The target in another data set is hERG (KCNH2) (Homo sapiens, UniProt Q12809). The experiment in a line: in vitro. To be noted: CHO-K1 cells expressing human ERG.
Chain of hERG (KCNH2) (Q12809 whole entry): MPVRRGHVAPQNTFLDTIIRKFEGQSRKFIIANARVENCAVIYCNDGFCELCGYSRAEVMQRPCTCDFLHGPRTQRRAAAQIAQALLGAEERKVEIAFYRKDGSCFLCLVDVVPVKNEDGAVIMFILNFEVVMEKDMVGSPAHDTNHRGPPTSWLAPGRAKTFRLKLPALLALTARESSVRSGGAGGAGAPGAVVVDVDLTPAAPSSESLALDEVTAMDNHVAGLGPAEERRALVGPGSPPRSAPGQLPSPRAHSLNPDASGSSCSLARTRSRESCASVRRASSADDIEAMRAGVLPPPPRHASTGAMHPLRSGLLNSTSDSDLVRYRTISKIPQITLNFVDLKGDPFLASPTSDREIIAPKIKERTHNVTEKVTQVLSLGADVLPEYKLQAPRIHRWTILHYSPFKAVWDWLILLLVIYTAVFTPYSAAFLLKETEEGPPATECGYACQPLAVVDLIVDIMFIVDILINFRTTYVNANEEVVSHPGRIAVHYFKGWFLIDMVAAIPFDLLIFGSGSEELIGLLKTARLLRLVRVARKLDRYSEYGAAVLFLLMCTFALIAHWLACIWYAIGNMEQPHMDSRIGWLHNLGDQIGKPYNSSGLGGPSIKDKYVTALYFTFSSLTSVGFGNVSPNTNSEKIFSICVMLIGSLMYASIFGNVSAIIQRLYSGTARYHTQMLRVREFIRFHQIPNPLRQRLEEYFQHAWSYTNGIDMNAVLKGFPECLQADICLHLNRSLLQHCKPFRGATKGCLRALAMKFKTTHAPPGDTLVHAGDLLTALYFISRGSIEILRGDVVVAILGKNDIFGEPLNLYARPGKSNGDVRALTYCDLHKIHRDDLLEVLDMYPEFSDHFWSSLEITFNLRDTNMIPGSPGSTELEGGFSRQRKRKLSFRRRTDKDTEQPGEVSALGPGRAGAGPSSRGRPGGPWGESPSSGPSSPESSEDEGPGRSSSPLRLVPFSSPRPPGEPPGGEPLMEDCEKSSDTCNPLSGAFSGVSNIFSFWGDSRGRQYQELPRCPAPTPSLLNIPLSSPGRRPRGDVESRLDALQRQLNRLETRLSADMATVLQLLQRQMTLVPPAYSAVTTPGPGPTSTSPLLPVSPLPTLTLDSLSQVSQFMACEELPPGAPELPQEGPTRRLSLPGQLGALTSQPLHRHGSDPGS
The next data set is described as follows: in vivo. As to conditions: cynomolgus monkey, po, 5 mg/kg.
The subject of the next data set is MDA-MB-231. The experiment in a line: cells. As to conditions: Homo sapiens, MDA-MB-231, 72 h.

`C[C@@H]1CN(CC(=O)N2CC(C)(C)c3nnc(Cc4ccc(F)cc4F)cc32)[C@@H](CN2Cc3ccccc3C2=O)CN1`: the bioavailability (in general, dose-corrected exposure relative to a reference, in per cent) in data set [1] is 3%; in data set [3], 2%; in “in vivo”, 18%. Further, the chromatographic logD – broadly, lipophilicity estimated from chromatographic retention – in data set [2] came out at 2.4. Further, at CYP3A4, the half-life (usually how long it takes for the measured level to halve) at 40 min, 1 µM was > 1.17 h. Further, the inhibition (in general, the change of the read-out against control, counted positive when it falls) at 10 min, 30 µM against hERG (KCNH2) was 27%. In the data set on MDA-MB-231, it took 5.4 nM to reach half-maximal inhibition (IC50).
